# Measurements reported in patent US20240002419A1, “RADIATION-ACTIVATED TETRAVALENT PLATINUM COMPLEX AND USE THEREOF” (priority 2020, published 2024).
# Assay: Yield of reduced metal compounds under X-ray irradiation
# Assay type: physicochemical
# Conditions: not given
# Protocol: Operation steps of test: the compound was dissolved in ultrapure water to prepare a 100 μM metal compound solution, and oxygen gas in the solution was removed by bubbling nitrogen gas for 15 minutes. […] Finally, the remaining amount of raw material was measured, the disappeared concentration of the reactant was calculated, and the radiation yield was calculated (radiation yield=disappeared concentration of reactant/radiation dose).
row,SMILES,Yield (radiation yield = disappeared concentration of reactant/radiation dose)
1,"O=P([O-])([O-])O.[K+].[K+] [Compound 3, dipotassium hydrogen phosphate]",(No metal cation reduction
2,"[Cl-].[Cl-].[Mg+2] [Compound 4, magnesium chloride]",(No metal cation reduction
3,"O=S(=O)([O-])[O-].[Cu+2] [Compound 13, copper sulfate]",209 nM/Gy

# Same assay, conditions: 100 μM in deoxygenated ultrapure water, X-rays 0-1000 Gy, 4 Gy/min
row,SMILES,Yield (radiation yield = disappeared concentration of reactant/radiation dose)
1,"[Cl-].[K+] [Compound 2, potassium chloride]",(No metal cation reduction
2,"O=[N+]([O-])[O-].[Ag+] [Compound 14, silver nitrate]",576 nM/Gy
3,"[Cl-].[Na+] [Compound 1, sodium chloride]",(No metal cation reduction
4,"[Cl][Fe]([Cl])[Cl] [Compound 5, ferric chloride]",578 nM/Gy
5,[NH2][Pt]([NH2])([Cl])([Cl])([O]C(=O)CCCC[P+](c1ccccc1)(c1ccccc1)c1ccccc1)[O]C(=O)CCCC[P+](c1ccccc1)(c1ccccc1)c1ccccc1 [Compound 18],427 nM/Gy
6,"C1=Cc2cc3ccc(cc4nc(cc5ccc(cc1n2)[nH]5)C=C4)[nH]3.[Fe] [Compound 16, iron porphyrin]",598 nM/Gy
7,"[K+].[K+].[O]=[Cr](=[O])([O-])[O][Cr](=[O])(=[O])[O-] [Compound 9, potassium dichromate]",87 nM/Gy
8,"[Cl][Ni][Cl] [Compound 10, nickel chloride]",347 nM/Gy

# Assay: Radiation-driven (γ-ray) release of Pt(II) drugs from Pt(IV) complexes, UPLC-MS and NMR
# Assay type: physicochemical
# Conditions: γ-rays (60Co, 40 kGy), D2O, deoxygenated
# Source text: To explore the generalizability of this strategy, we further conducted the same study on two other platinum-based drugs commonly used globally, carboplatin and cisplatin.
row,SMILES,Product released after irradiation
1,NC1CCCCC1N.O=C(O)CCC(=O)[O][Pt]1([O]C(=O)CCC(=O)O)[O]C(=O)C(=O)[O]1 [oxaliPt(IV)-(Suc)2],released product was oxaliplatin
2,N.N.O=C(O)CCC(=O)[O][Pt]([Cl])([Cl])[O]C(=O)CCC(=O)O [cisPt(IV)-(Suc)2],release the corresponding Pt(II) drugs
3,[NH2][Pt]1([NH2])([O]C(=O)CCC(=O)O)([O]C(=O)CCC(=O)O)[O]C(=O)C2(CCC2)C(=O)[O]1 [carboPt(IV)-(Suc)2],release the corresponding Pt(II) drugs
